The values below come from US5962408A, “Disulphide-cyclo-[H-Cys-Glu-Gln-Tyr-Cys-OH], and its use in blood-clotting disorders” (Nycomed Imaging AS, priority 1994, dated 1999).

“Also recorded” adds a separate entry of the source. Read-outs that look alike come from different tables or passages of the source. Positions of bridges follow the written chain, without caps; N, C: chain ends. Residues, ends and D or L forms follow the SMILES beside them.

For data set [1], the system named is TF-dependent arterial thrombogenesis. Nature of the data set: human ex vivo model of TF-dependent arterial thrombogenesis. The note with it: around 1 mM final peptide/plasma concentration. On the procedure: Apart from the ability of the peptide disulphide-cyclo-[H-Cys-Glu-Gln-Tyr-Cys-OH] to inhibit the complex formation between FVIIa and TF in various biochemical assays, we have also found this peptide to be efficacious in a clinically relevant ex vivo model of TF/FVII-dependent arterial human thrombogenesis.
The efficacy of peptides was tested in a human ex vivo model of TF-dependent arterial thrombogenesis, essentially as described (K. S. Sakariassen et al., 1990, Arteriosclerosis, 10, 276; U. .O slashed.rvim et al., 1995, Arterioscl. Thromb. Vasc. Biol., in press). Human non-anticoagulated blood was drawn directly from an antecubital vein and mixed with peptide solution in a heparin-coated mixing device situated proximally to a perfusion chamber which contained a TF-coated coverslip (Thromborel S®). Blood flow was kept at 10 mL/min for 4 minutes, producing a shear rate of 650 s^-1, typical for small arteries.

Data set [2] addresses T1, factor VIIa/tissue factor (Homo sapiens, UniProt P13726).
T1 construct: purchased American Diagnostica, Inc. (TF); Novo Nordisk A/S (FVIIa)
Nature of the data set: two-stage chromogenic assay of factor VIIa/tissue factor-catalysed factor X activation. Type of data set: biochemical. Here is the method:
This was determined using a two-stage chromogenic biochemical in vitro assay, essentially as described (A. Kumar et al., 1991, J. Biol. Chem., 266, 915). In short: peptides were pre-incubated with lipidated TF (5 pM; from American Diagnostica, Inc., Greenwich, Conn., USA) and calcium (5 mM) for 10 minutes prior to addition of FVIIa (5 pM; from Novo Nordisk A/S, Gentofte, Denmark) and FX (20 nM; from Enzyme Research Laboratory, South Bend, Ind., USA). Reactions were terminated by addition of EDTA (50 mM) and formation of FXa was monitored using the chromogenic FXa substrate S2765 (0.4 mM; from Chromogenix, Mondal, Sweden) and measuring the absorbance increase at 405 nm in a microtitre plate reader. The concentration for half-maximal inhibition (IC50) was determined from dose-inhibition curves.

Data set [3] has as its system tissue factor-dependent plasma coagulation. Nature of the data set: one-stage in vitro tissue factor-dependent plasma coagulation assay. In kind it is biochemical, human. The note with it: end-capped peptide tested up to 1.5 mM. On the procedure:
A one-stage in vitro coagulation assay was used as follows: peptides dissolved in 3-[N-morpholino]propane-sulphonic acid buffer (100 mM, pH 7.4) and NaCl (100 mM) were premixed with diluted (1:50 in saline) lipidated TF (Thromborel S®, Behringwerke AG, Marburg, Germany) and CaCl2 (5 mM final concentration) and the solutions were kept at 37° C. for 2 minutes. The coagulation reaction was initiated by addition of a thawed aliquot of frozen platelet-free human plasma pool (37° C.). The clotting-time for four replicate incubations were simultaneously determined automatically in an electromagnetic coagulometer (Thrombotrack 4, Nycomed Pharma AS, Oslo, Norway). The mean value for the clotting times determined from the replicate samples were converted to arbitrary TF units by a log-log calibration curve generated with Thromborel.

Data set [4] in a line: solubility in physiological media. In kind it is physicochemical.
In data set [5] the target is binding of Factor VII to tissue factor (Homo sapiens, UniProt P13726). The note with it: reported in PCT/GB94/01315; cited from earlier work.
Sequence of binding of Factor VII to tissue factor (P13726 33-295): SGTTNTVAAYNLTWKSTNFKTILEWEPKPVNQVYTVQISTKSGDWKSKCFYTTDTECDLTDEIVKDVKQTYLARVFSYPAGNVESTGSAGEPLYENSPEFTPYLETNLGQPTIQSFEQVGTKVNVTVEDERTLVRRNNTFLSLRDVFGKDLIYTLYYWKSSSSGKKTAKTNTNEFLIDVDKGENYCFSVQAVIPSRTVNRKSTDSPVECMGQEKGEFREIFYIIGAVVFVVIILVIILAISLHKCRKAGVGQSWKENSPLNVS
[6] abbreviates: mean±standard deviation, TF 5 pM, FVIIa 5 pM, FX 20 nM, read-out: IC50 (concentration for half-maximal inhibition of FXa formation).
[7] abbreviates: summary values in the description, read-out: IC50 in the two-stage chromogenic assay of A. Kumar et al.

T1 sequence (P13726 33-295): as above

In the case of “H-YADKIEDTKL-OH [H-Tyr-Ala-Asp-Lys-Ile-Glu-Asp-Thr-Lys-Leu-OH]”, the “effect on thrombus formation” value in data set [1] is recorded as “no effect”.
For `CC(=O)N[C@H]1CSSC[C@@H](C(N)=O)NC(=O)[C@H](Cc2ccc(O)cc2)NC(=O)[C@H](CCC(N)=O)NC(=O)[C@H](CCC(=O)O)NC1=O` [disulphide-cyclo-[Ac-Cys-Glu-Gln-Tyr-Cys-NH2 ]] (Ac-CEQYC-NH2; disulfide 1-5), the IC50 in data set [2] (setting [6]) is 265 ± 174 µM; in data set [2] (setting [7]), approximately 200 µM. The “fold lower potency versus disulphide-cyclo-[H-Cys-Glu-Gln-Tyr-Cys-OH]” value in data set [2] (same assay) is listed as 26 fold. For the same compound, in data set [3], the “effect on clotting time” value is on record as “without any effect”. The “solubility properties in physiological media” value in data set [4] is “poor solubility properties”. Also, the “highest testable concentration due to solubility” value in data set [4] (coagulation assay buffer) is reported as “ca. 1.5 mM”. Moreover, in data set [5], the “inhibition of binding of Factor VII to tissue factor” value is recorded as “negligible”.
With `NC(=O)CC[C@@H]1NC(=O)[C@H](CCC(=O)O)NC(=O)[C@@H](N)CSSC[C@@H](C(=O)O)NC(=O)[C@H](Cc2ccc(O)cc2)NC1=O` [disulphide-cyclo-[H-Cys-Glu-Gln-Tyr-Cys-OH]] (H-CEQYC-OH; disulfide 1-5), the IC50 came to 10.1 ± 5 µM in data set [2] (setting [6]) and 10 µM in data set [2] (setting [7]). Further, in data set [4], the “solubility properties in physiological media” value is reported as “superior solubility properties; also recorded: freely soluble”.
